Data published in ChEMBL document CHEMBL1201862, “PubChem BioAssay data set” (2004).
Activity calls are given as the source filed them.

What was measured:
[1] = Luminescence Cell-Based Dose Retest to Confirm Inhibitors of Cancer Stem Cells. [Related pubchem assays (depositor defined):AID2717, AID2721]; type: functional; conditions: Homo sapiens
[2] = viability loss of HMLE_sh_eGFP cells – cell-based, luminescence, counter-screen for HMLE_sh_ECad selective toxicity project, dose response (AID 463074); type: functional, Homo sapiens;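 further: HMLE human mammary epithelial cells expressing control shRNA against eGFP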
CAAX prenyl protease 2 = biological target: T1, CAAX prenyl protease 2 (Saccharomyces cerevisiae S288c, UniProt Q03530); type: biochemical
T1 sequence (Q03530 whole entry): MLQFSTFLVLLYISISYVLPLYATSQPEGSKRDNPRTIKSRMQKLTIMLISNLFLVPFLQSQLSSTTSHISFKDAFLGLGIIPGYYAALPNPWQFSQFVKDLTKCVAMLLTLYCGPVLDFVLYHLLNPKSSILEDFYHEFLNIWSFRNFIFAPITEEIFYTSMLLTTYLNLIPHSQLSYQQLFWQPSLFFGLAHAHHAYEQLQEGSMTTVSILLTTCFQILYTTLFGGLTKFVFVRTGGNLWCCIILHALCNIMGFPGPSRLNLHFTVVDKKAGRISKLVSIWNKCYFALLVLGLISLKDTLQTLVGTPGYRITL

Jurkat = test: blockers of NF-kB activation in T cells – Jurkat, luciferase reporter, luminescence, B- and T-cell, dose response (AID 489004); type: functional, cell-based; conditions: Homo sapiens;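 further: NF-kB luciferase reporter Jurkat cells stimulated with PMA plus ionomycin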
[3] = HEK-293T viability loss, compound-treated – cell-based, uHTS hits, cytotoxicity control for B/T-cell NF-kB inhibitor project, dose response (AID 489019); type: functional;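 further: IC50 reflects cytotoxicity as loss of cell viability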
[4] = biological target: T2, Microphthalmia-associated transcription factor (Homo sapiens, UniProt O75030); test: reducers of TRPM1 reporter luminescence, concentration series – cell-based, SK-MEL-5, cherry-picked, set 3, MITF inhibitor project, dose response (AID 493073); type: functional;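 further: SK-MEL-5 melanoma cells with luciferase driven by the MITF target TRPM1 promoter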
T2 sequence (O75030 whole entry): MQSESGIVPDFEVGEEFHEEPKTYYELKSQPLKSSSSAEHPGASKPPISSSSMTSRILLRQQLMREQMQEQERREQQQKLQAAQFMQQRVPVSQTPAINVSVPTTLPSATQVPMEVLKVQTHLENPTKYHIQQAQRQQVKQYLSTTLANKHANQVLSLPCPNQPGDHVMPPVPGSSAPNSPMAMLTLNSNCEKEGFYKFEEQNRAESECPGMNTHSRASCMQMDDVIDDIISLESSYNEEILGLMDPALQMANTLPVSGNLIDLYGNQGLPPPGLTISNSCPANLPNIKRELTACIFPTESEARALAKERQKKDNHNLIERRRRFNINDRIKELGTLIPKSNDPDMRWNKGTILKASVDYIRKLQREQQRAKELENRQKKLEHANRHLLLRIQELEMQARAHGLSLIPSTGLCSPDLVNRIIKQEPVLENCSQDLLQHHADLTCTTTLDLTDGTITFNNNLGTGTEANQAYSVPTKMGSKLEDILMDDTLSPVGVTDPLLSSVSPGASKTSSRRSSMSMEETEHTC

A-375 = test: MITF: Counter assay: A375 proliferation Measured in Cell-Based System Using Plate Reader - 2084-03_Inhibitor_Dose_DryPowder_Activity. [Related pubchem assays (depositor defined):AID488944]; type: functional; conditions: Homo sapiens
[5] = biological target: T3, Replicative DNA helicase DnaB (Mycobacterium tuberculosis, UniProt P9WMR3); test: DnaB intein splicing inhibitors, dose response, biochemical, cell-free fluorescence (AID 449749); type: functional
T3 sequence (P9WMR3 whole entry): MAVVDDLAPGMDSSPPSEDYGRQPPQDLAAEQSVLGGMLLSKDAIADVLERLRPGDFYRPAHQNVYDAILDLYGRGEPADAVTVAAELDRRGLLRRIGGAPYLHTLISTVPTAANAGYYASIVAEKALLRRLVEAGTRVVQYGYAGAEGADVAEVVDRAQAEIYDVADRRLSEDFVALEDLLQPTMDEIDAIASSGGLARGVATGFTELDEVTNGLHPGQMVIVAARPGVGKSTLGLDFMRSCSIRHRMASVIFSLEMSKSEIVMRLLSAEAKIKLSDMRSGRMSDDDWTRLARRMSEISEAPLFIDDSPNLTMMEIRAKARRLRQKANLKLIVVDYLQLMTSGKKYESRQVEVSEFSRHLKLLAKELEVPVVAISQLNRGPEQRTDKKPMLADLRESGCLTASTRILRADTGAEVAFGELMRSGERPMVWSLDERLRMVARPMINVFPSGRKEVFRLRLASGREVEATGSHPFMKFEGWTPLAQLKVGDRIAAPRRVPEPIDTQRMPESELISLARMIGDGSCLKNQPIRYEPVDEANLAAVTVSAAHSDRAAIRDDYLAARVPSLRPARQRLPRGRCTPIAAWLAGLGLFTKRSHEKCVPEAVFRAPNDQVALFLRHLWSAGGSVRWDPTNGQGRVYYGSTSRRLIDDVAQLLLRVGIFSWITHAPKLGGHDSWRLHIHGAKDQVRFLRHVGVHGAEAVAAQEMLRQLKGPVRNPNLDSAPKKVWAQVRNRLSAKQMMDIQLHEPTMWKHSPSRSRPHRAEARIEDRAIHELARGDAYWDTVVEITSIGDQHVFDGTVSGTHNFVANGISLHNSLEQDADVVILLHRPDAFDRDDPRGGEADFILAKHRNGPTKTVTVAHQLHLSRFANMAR

Protein RecA = biological target: T4, Protein RecA (Mycobacterium tuberculosis, UniProt P9WHJ3); test: Fluorescence Cell-Free Homogeneous Dose Retest to Identify Inhibitors of RecA-Intein Splicing Activity. [Related pubchem assays (depositor defined):AID2097, AID2223, AID489010, AID492950]; type: functional
T4 sequence (P9WHJ3 whole entry): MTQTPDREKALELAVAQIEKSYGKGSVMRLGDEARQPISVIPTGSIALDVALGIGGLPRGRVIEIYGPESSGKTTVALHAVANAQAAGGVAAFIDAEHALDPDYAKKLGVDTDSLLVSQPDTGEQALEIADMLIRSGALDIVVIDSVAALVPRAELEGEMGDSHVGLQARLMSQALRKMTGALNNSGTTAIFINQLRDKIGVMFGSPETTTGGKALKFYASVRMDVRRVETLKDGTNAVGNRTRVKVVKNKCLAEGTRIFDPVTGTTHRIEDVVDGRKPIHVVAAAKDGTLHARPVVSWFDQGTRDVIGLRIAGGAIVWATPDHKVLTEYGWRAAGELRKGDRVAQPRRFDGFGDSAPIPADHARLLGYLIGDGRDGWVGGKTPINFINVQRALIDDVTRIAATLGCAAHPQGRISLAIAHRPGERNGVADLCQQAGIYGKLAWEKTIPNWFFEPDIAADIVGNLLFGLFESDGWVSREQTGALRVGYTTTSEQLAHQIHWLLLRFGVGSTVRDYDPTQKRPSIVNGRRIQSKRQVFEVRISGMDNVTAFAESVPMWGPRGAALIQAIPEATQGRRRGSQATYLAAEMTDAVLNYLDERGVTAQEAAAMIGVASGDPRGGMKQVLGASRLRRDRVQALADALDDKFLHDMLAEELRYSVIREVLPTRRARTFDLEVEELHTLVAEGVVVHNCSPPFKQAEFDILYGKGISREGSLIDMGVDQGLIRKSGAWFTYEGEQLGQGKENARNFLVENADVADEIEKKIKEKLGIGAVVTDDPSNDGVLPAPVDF

INS1 = test: INS-1E survival protection against cytokine death – cell-based, luminescence, retest, dose response (AID 449756); type: functional; conditions: Rattus norvegicus;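 further: cell death triggered by IL-1 beta plus TNF-alpha plus IFN-gamma mixture; protective hits raise ATP signal compared with cytokine alone wells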
[6] = biological target: T5, Apoptotic protease-activating factor 1 (Homo sapiens, UniProt O14727); type: functional
T5 sequence (O14727 whole entry): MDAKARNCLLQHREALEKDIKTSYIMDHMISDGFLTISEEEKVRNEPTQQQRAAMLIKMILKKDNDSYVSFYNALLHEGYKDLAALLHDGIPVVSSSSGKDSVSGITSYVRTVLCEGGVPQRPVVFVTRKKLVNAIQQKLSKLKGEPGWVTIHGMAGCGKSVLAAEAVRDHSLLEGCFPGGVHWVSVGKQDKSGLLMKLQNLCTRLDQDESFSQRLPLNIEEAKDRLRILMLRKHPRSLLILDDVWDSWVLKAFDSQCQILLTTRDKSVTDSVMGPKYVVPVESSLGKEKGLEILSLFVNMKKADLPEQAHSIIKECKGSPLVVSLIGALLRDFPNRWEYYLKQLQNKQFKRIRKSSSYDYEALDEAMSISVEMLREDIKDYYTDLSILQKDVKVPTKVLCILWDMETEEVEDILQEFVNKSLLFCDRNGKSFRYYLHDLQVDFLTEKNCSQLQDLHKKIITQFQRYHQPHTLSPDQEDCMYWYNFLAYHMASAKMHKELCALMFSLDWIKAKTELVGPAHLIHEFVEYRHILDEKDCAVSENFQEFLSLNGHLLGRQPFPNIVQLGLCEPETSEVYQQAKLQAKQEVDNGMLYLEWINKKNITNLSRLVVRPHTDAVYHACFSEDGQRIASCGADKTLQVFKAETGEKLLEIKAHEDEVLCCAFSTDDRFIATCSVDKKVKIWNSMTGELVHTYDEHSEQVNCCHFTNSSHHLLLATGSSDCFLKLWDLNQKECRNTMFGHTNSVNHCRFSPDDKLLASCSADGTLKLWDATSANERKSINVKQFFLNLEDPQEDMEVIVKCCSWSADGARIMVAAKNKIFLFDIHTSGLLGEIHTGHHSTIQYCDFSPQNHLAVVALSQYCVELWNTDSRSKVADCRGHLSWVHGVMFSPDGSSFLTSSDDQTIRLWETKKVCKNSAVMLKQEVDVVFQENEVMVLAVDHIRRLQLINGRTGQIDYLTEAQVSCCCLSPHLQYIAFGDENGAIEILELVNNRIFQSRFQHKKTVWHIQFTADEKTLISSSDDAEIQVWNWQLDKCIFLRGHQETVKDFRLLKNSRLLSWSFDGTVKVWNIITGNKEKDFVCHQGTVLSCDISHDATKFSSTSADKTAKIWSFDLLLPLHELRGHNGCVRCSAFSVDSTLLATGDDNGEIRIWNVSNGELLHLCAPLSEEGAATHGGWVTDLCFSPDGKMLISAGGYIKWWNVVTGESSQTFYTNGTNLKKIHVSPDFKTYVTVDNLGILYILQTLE

[7] = biological target: T6, Zinc finger protein mex-5 (Caenorhabditis elegans, UniProt Q9XUB2); test: potency of MEX-5 RNA-binding blockers – biochemical, C. elegans, fluorescence polarization, dose response (AID 1960)
T6 sequence (Q9XUB2 whole entry): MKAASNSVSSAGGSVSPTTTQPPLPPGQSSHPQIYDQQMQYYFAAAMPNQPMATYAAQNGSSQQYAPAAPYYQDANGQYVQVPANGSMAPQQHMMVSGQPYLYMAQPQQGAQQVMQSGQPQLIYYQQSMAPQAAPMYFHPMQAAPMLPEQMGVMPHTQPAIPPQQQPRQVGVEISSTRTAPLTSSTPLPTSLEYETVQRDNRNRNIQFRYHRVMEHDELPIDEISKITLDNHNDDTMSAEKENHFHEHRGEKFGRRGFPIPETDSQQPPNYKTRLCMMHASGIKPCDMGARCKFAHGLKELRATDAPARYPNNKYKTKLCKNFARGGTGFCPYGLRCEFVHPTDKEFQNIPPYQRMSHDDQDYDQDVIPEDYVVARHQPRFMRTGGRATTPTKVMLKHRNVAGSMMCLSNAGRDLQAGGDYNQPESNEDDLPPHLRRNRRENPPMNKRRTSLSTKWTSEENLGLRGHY

[8] = biological target: T7, Endoribonuclease toxin MazF (Escherichia coli K-12, UniProt P0AE70); test: substrate-only fluorescence increase artefacts – biochemical, single-stranded RNase substrate, counter-screen for MazEF activator project, dose response (AID 588502); type: functional
T7 sequence (P0AE70 whole entry): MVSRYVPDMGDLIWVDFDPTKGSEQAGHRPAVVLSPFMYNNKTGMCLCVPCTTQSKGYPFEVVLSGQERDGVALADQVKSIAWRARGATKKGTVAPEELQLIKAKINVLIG

[9] = biological target: T8, RNA-binding protein pos-1 (Caenorhabditis elegans, UniProt G5EF15); test: disruptors of C. elegans POS-1 RNA interaction – biochemical, fluorescence polarization, dose response (AID 1964);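 further: purified POS-1 fused to maltose binding protein made in E. coli; potency of compounds blocking POS-1 binding to fluorescent RNA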
T8 sequence (G5EF15 whole entry): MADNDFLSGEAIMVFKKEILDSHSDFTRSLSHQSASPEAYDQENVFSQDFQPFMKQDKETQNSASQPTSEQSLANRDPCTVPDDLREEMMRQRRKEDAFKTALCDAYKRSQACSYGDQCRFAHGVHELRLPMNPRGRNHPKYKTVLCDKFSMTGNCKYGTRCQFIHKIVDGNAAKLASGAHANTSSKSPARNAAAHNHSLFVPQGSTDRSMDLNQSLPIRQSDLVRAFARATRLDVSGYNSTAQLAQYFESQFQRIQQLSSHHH

[10] = biological target: UDP-galactopyranose mutase (Mycobacterium tuberculosis, UniProt P9WIQ1); test: Inhibitors of Mycobacterium tuberculosis UDP-galactopyranose mutase (UGM) enzyme Measured in Biochemical System Using Plate Reader - 2105-02_Inhibitor_Dose_CherryPick_Activity. [Related pubchem assays (depositor defined):AID504439]
[11] = biological target: T7, Endoribonuclease toxin MazF; test: activation of MazEF endoribonuclease cleavage – biochemical, fluorescence, single-stranded RNA substrate, uHTS hits, dose response (AID 588481); type: functional
HEK293 [12] = test: cells; conditions: Homo sapiens
HEK293 [13] = test: cells; conditions: Homo sapiens; remark: listed apart in the source

Sequence of UDP-galactopyranose mutase (P9WIQ1 whole entry): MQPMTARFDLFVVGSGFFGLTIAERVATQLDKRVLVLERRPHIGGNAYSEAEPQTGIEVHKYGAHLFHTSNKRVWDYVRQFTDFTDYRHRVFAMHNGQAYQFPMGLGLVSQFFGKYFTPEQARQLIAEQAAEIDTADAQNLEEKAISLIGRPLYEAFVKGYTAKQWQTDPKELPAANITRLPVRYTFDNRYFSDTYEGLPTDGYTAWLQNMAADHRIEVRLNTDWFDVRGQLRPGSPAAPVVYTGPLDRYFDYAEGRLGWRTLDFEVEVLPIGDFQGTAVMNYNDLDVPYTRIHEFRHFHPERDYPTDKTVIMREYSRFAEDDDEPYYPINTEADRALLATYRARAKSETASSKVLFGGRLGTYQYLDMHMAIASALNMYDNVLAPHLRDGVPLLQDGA

CCCCN=C(S)N=Nc1c(O)n(Cc2ccccc2)c2ccccc12
AC50 [1]: 61.5 µM (active) | AC50 [2]: 119 µM (active) | AC50 (CAAX prenyl protease 2): 0.601 µM (active)

N=c1ccn2c(n1)O[C@H]1[C@@H](CO)[C@H](O)O[C@H]12
IC50 (Jurkat): > 80 µM (inactive) | IC50 [3]: > 80 µM (inactive)

CCOC(=O)c1c(C)oc2c1C(=O)c1ccccc1C2=O
AC50 [1]: 4.44 µM (active) | AC50 [4]: 3.18 µM (active) | AC50 (A-375): 41.9 µM (active) | AC50 [5]: 6.31 µM (active) | EC50 (Protein RecA): 13.3 µM (active) | AC50 (INS1): 3.7 µM (active) | IC50 [6]: 16.1 µM (active)

Cc1ccc(Cl)c2c(N=Nc3ccccc3)c(O)[nH]c12
EC50 [7]: > 300 µM (inconclusive) | EC50 [8]: 8.15 µM (active) | EC50 [9]: 18.6 µM (active) | AC50 [10]: 113 µM (active) | EC50 [11]: 19.1 µM (active)

COc1ccc(Cn2nnc3c(O)nc(C(=O)NCCc4ccc(F)cc4)nc32)cc1OC
EC50 (HEK293 [12]): > 59.7 µM (inactive) | EC50 (HEK293 [13]): > 59.7 µM (inactive)
